Data reported in patent US8614222B2, “Methods of preventing and treating low bone mass diseases” (The Trustees of Columbia University in the City of New York, priority 2008, dated 2013).
Entries after “also recorded” stand apart in the source; their conditions may differ.

Assays:
[1] = test system: peripheral serotonin; experiment: Peripheral serotonin levels in wild-type mice (Example 11); type: in vivo; conditions: 5 mice per compound
Description: (§1) Serotonin serum levels were quantified using immunoassay kits from Fitzgerald (Serotonin) and serotonin levels in the different regions of the brain were quantified by HPLC method as described previously (Mann et al., 1992, Arch. Gen. Psychiatry 49:442-446).
The following three compounds were tested for their ability to effect peripheral serotonin levels in wild-type mice:
Also tested as a negative control was vehicle alone. Each compound as well as vehicle was administered to 5 mice and the resulting peripheral serotonin levels were as follows: […]

[2] = test system: peripheral serotonin; experiment: Effect of CBMIDA and pCPA on peripheral (serum) serotonin in mice (Example 1); type: in vivo; conditions: for reduction of peripheral (serum) serotonin: 250 mg/kg orally
Description: One month old C57B1/6 inbred male mice, weighing 15-16 g were used in the experiments. Animals were housed under 12 h light/12 h dark conditions in a room with controlled temperature (22° C.) and humidity (60%). Mice had ad libitum access to food and water, and were used after a minimum of 4 days of acclimatization to the housing conditions. All experiments were conducted following Columbia University Guidelines for the Animal Use and Care of laboratory mice.
(§2) Before the experiments, animals were separated into individual cages one day prior to the experiment. Compounds were fed orally (gavage) to the mouse, calculated according to the weight of the mouse, twice a day at 1700 h and at 1100 h. […] This route created two potential barriers for the compound to reach the brain. […] Control animals received the same volume of vehicle. Blood was collected through heart puncture on isofluorane-anaesthesized animals and allowed to clot for 5 minutes on ice. The serum was separated, snap chilled in liquid nitrogen and frozen at −80° C. till analyzed. Brainstems from all the animals were collected and processed for brain serotonin measurement through HPLC.
The Serotonin ELISA kit obtained from the Fitzgerald company was used to measure derivatized serotonin from serum. Derivatization is part of the sample preparation. Serotonin present in the serum was first quantitatively acylated into N-Acylserotonin using the acylation reagent. The principle of the assay is based on competitive ELISA, wherein serotonin that is bound to the solid phase of the plate and the N-acylserotonin compete for the fixed number of antiserum binding sites. When the reaction is in equilibrium, free antigen and free antigen-antiserum complexes are removed by washing.
The antibody bound to the solid phase serotonin is then detected using antirabbit/peroxidase. The substrate TMB/Peroxidase reaction is read at 450 nm. The amount of antibody bound to the solid phase serotonin is inversely proportional to the concentration of serotonin in the sample.
Catechol-3,6-bis methyleneiminodiacetic acid (CBMIDA) (basic structure is an EDTA-like compound and the catechol ring is at the centre) synthesized at the Columbia University Chemistry division, and para-chlorophenylalanine (pCPA) obtained from Sigma Aldrich Corp. were used. Each compound was dissolved with twice molar solution of NaHCO3 in water and given to mouse orally at 250 and 500 mg/kg/dose.

[3] = target: rb 5-HT1B receptors (Oryctolagus cuniculus, UniProt P49144); conditions: cited from earlier work
[4] = test system: Lrp5−/− mice; experiment: pCPA treatment of Lrp5−/− and WT mice; type: in vivo
Description: Consistent with the conclusion that the increase in serum serotonin level is responsible fully or partly for the bone phenotype of the Lrp5−/− mice is the discovery that pCPA, a serotonin synthesis inhibitor (Eldridge et al., 1981, Ann. Rev. Physiol. 43:121-135), prevented the appearance of the Lrp5−/− bone phenotype by decreasing serotonin production. WT and Lrp5−/− mice were treated with 300 mg/kg pCPA intraperitoneally three times per week, from 3 weeks to 12 weeks of age (FIG. 7A) and the changes in serum serotonin levels, TPH1 expression in gut and TPH2 expression in brain stem were analyzed. Bone histomorphometry was also performed. […] This rescue of the Lrp5−/− phenotype was achieved by normalization of the gut TPH1 mRNA and of serum serotonin levels (FIGS. 7C and 7D).
Generation of Lrp5−/− (Kato et al., 2002, J. Cell Biol. 157:303-314) β-cateninfloxed/floxed (Glass et al., 2005, Dev. Cell 8:751-764), α1(I)collagen-cre transgenic (Dacquin et al., 2002, Dev. Dyn. 224:245-251) and Htt−/− (Ansorge et al., 2008, J. Neurosci. 28:199-207) mice were as described previously. Lrp5+/−;Htt+/− double heterozygous mice were generated by crossing Lrp5+/− and Htt+/− mice. Three week-old Wt or Lrp5−/− mice were administered pCPA on alternate days for 9 weeks by i.p. All animal protocols were approved by the Animal Care Committees of Columbia University.
Static histomorphometry measurements were performed as previously described in accordance with standard nomenclature, using the Osteomeasure Analysis System (Osteometrics, Inc) (Ducy et al., 2000, Cell 100:197-207). Four to 9 animals were assigned per group.
as §1

[5] = test system: brain serotonin; experiment: Brain serotonin / blood brain barrier after oral pCPA in mice; type: in vivo; conditions: 250 mg/kg orally
Description: as §2

[6] = test system: primary osteoblasts; experiment: Real-time PCR of gene expression in primary osteoblasts treated with serotonin; type: cell-based, mouse; conditions: serotonin 50 to 100 μM, 24 hr
Description: Calvaria osteoblasts were extracted by triple collagenase/trypsine digestion from 4 day-old CD1 pups and differentiated with ascorbic acid as previously described (Duey et al., 2000, Cell 100:197-207).
(§3) Osteoblasts were treated in serum-free medium with vehicle or Serotonin (50 to 100 μM, Sigma) for 24 hr. Total RNA were extracted with Trizol (Invitrogen). cDNA were generated using the ABI Reverse transcriptase system and random hexanucleotide primers. Real-time PCR was performed using superarray primers on a Stratagene real time PCR cycler and Actin expression was used as endogenous control. Chromatin immunoprecipitation assays (ChIP) were performed by standard procedures using primary osteoblasts. Microarray analysis was performed as described previously (Glass et al., 2005, Dev. Cell 8:751-764).

[7] = test system: CREB; experiment: CREB phosphorylation (Western blot) and CREB binding to Cyclin D1 promoter (ChIP) in primary osteoblasts; type: cell-based, mouse
Description: as §3
Osteoblasts were treated in serum-free medium with vehicle or Serotonin (50 to 100 μM, Sigma) for 24 hr. Lysates from primary osteoblasts or crushed frozen bones were prepared in RIPA buffer in the presence of protease and phosphatase inhibitors. Twenty to 60 μg of proteins were separated by SDS-PAGE in reducing conditions and transferred on nitrocellulose membrane using standard protocols. Membranes were incubated with primary antibodies including total or anti-Phospho CREB (Cell Signaling Technology).

[8] = test system: ovariectomized rats; experiment: Curative regimen in ovariectomized rats (histomorphometry, μCT, biomechanical testing); type: in vivo; conditions: OVX rats
Description: Virgin female Sprague-Dawley rats (National Institute of Nutrition, Hyderabad, India) were obtained at 3 months of age and allowed to acclimate to the facility for 1 week before study initiation and surgical procedures. They were housed under a 12 hour:12 hour light:dark cycle and provided throughout the study with water and PMI (Purina Mills, Incorporated) Certified Rodent Laboratory Chow. Rats were subjected to either bilateral ovariectomy or a sham operation under isoflurane anesthesia. […] The rats were divided into two groups of sham-operated and ovariectomized animals and left untreated for 3 weeks to allow bone loss to occur. One group of sham and one group of ovariectomized rats (n=10/group) were killed as baseline controls to determine bone loss before the start of LP-533,401 or PTH administration. The remaining animals (n=5-10/group) received vehicle or LP-533,401 (250 mg/kg/day) by gavage, or recombinant human PTH (80 ug/kg) by daily subcutaneous (s.c.) injection for 4 weeks. The 80 ug/kg dose of PTH was selected as being optimal for reversal of ovariectomy-induced bone loss in rats based on previous studies, while the dose of LP-533,401 was selected based on the effective dose for bone loss-reversal observed in mice experiments. To label bone-forming surfaces, animals were injected s.c. with calcein (8 mg/kg) at 10 and 3 days before death. Animals were killed by an overdose of Isofluorane anesthesia. The right tibia and lumbar vertebra 2 (L2) were collected, cleaned of excess soft tissue, fixed overnight in 10% formalin and processed for μCT or histomorphometric analysis. The right femur and L3 were cleaned of excess tissue and stored at −20° C. prior to biomechanical testing.
Bone histomorphometry was performed as previously described (Duey et al., 2000, Cell 100:197-207; Takeda et al., 2002, Cell 111:305-317; Parfitt et al., 1987, J. Bone Miner. Res. 2:595-610). Briefly, lumbar vertebrae were dissected, fixed for 24 hr in 10% formalin, dehydrated in graded ethanol series, and embedded in methyl methacrylate resin according to standard protocols (Parfitt et al., 1987, J. Bone Miner. Res. 2:595-610). Von Kossa/Von Gieson staining was performed using 7 μm sections for bone volume over tissue volume (BV/TV) measurement. Bone formation rate (BFR) was analyzed by the calcein double-labeling method (Ducy et al., 2000, Cell 100:197-207). Calcein (Sigma Chemical Co., St. Louis, Mo.) was dissolved in calcein buffer (0.15 M NaCl, 2% NaHCO3) and injected twice at 0.125 mg/g body weight on day 1 and 4, and then mice were killed on day 6. Unstained 4 μm sections were used for bone formation rate (BFR) measurements. For the analysis of parameters of osteoblasts and osteoclasts, 4 μm sections were stained with toluidine blue and tartrate-resistant acid phosphatase (TRAP), respectively (2). Histomorphometric analyses were performed using the Osteomeasure Analysis System (Osteometrics, Atlanta, Ga.).
Trabecular bone architecture of proximal tibia was assessed using a micro computed tomography (μCT) system (VivaCT 40, SCANCO Medical AG, Bassersdorf, Switzerland). Tibia bone specimen was stabilized with gauze in a 2 ml centrifuge tube filled with 70% ethanol and fastened in the specimen holder of the μCT scanner. One hundred μCT slices, corresponding to a 1.05 mm region distal from the growth plate, were acquired at an isotropic spatial resolution of 10.5 μm. A global thresholding technique was applied to binarize gray-scale μCT images where the minimum between the bone and bone marrow peaks in the voxel gray value histogram was chosen as the threshold value. The trabecular bone compartment was segmented by a semi-automatic contouring method and subjected to a model-independent morphological analysis (Hildebrand et al., 1999, J. Bone Miner. Res. 14:1167-1174) by the standard software provided by the manufacture of the μCT scanner. […]

[9] = 300 mg/kg i.p. three times per week, 3 to 12 weeks of age
[10] = LP-533,401 250 mg/kg/day, PTH 80 μg/kg/day

rb 5-HT1B receptors, sequence (P49144 whole entry): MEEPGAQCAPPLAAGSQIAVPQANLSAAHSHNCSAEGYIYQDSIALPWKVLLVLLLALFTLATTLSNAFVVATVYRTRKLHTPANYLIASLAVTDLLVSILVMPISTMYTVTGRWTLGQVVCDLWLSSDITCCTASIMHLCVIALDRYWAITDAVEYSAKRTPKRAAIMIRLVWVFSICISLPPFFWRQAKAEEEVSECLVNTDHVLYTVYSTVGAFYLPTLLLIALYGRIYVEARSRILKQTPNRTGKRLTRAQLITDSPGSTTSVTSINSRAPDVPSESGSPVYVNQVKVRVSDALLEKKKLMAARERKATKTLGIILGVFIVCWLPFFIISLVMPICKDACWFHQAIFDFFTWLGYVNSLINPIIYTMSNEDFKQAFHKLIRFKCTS

Nc1nc(OC(c2ccc(-c3cccc(F)c3)cc2)C(F)(F)F)cc(-c2ccc(OC[C@H](N)C(=O)O)cc2)n1 (stereo partly drawn) [(2S)-2-amino-3-(4-(2-amino-6-(2,2,2-trifluoro-1-(3′-fluorobiphenyl-4-yl)ethoxy)pyrimidin-4-yl)phenoxy)propanoic acid]
Peripheral serotonin (ng/ml) (mean ± SEM) [1]: 93.77 ± 12.15 ng/mL

O=C(O)CN(CC(=O)O)Cc1ccc(CN(CC(=O)O)CC(=O)O)c(O)c1O [CBMIDA, Catechol-3,6-bis methyleneiminodiacetic acid]
reduction of peripheral (serum) serotonin ([2]; 4 week old mice): ~45% | reduction of peripheral serotonin ([2]; 4 week old mice, 500 mg/kg orally twice in 20 hours): about 80% | serotonin serum levels, decrease below normal ([2]; mice, 500 mg/kg orally twice daily): 80 % below normal | peripheral serotonin ([2]; oral feeding (FIG. 11)): reduces

COC(=O)C(=O)Nc1ccc(-c2cc(OC(c3ccc(-c4cccc(F)c4)cc3)C(F)(F)F)nc(N)n2)cc1 (stereo not shown) [Methyl 2-(4-(2-amino-6-(2,2,2-trifluoro-1-(3′-fluorobiphenyl-4-yl)ethoxy)pyrimidin-4-yl)phenylamino)-2-oxoacetate]
Peripheral serotonin (ng/ml) (mean ± SEM) [1]: 23.76 ± 8.25 ng/mL

O=C(c1ccc(F)cc1)C1CCN(CCn2c(=O)[nH]c3ccccc3c2=O)CC1 [ketanserin]
behaviour at rb 5-HT1B receptors [3]: as silent, competitive antagonists

CSc1ccc2c(c1)C(N1CCN(C)CC1)Cc1ccccc1S2 (stereo not shown) [methiothepin]
behaviour at rb 5-HT1B receptors [3]: as silent, competitive antagonists

NC(Cc1ccc(Cl)cc1)C(=O)O (stereo not shown) [pCPA, para-chlorophenylalanine]
reduction of peripheral (serum) serotonin ([2]; 4 week old mice): ~50% | serum serotonin levels, decrease below normal range ([2]; mice, oral, control inhibitor): > 60 % below normal range | bone abnormalities (low bone phenotype) of Lrp5−/− mice [4, 9]: corrected | bone mass in WT mice [4, 9]: without overtly affecting | gut TPH1 mRNA ([4]; Lrp5−/− mice, 300 mg/kg i.p.): normalization | serum serotonin levels ([4]; Lrp5−/− mice, 300 mg/kg i.p., 300 mg/kg): normalizes; also recorded: normalization | Brain TPH2 mRNA levels ([4]; treated mice, 300 mg/kg i.p.): not affected | crossing of the blood brain barrier [5]: did not cross the blood brain barrier | serotonin in the brain [5]: did not decrease

NCCc1c[nH]c2ccc(O)cc12 [serotonin, 5-hydroxytryptamine]
expression of Cyclin D1 [6]: decreased | expression of Cyclin D2 [6]: decreased | expression of Osteocalcin [6]: not modified | expression of Runx2 [6]: not modified | expression of Type I collagen [6]: not modified | CREB phosphorylation [7]: significantly decreased | binding of CREB to the Cyclin D1 promoter (ChIP) [7]: decreased

B1: PTH: recombinant human PTH, intermittent s.c. injections, standard to which bone anabolic agents are compared (protein, UniProt P01270 32-115, looked up)
Parathyroid hormone: SVSEIQLMHNLGKHLNSMERVEWLRKKLQDVHNFVALGAPLAPRDAGSQRPRKKEDNVLVESHEKSLGEADKADVNVLTKAKSQ
modifications: Parathyroid hormone
notes: recombinant human PTH, intermittent s.c. injections, standard to which bone anabolic agents are compared
number of osteoclasts per bone surface (OcS/BS) versus untreated ovariectomized rats [8]: similar | decrease in cortical thickness at the femur mid-shaft [8, 10]: equally rescued | maximal load (femur, vertebra) [8, 10]: restored to values seen in sham-operated rats | stiffness (femur, vertebra) [8, 10]: restored to values seen in sham-operated rats
